Legend:
rat limbic system = settings: pretreatment of rats, systemic kainic acid seizure; cited from earlier work
GABA neurons = experiment: Whole-cell patch recording in lumbar spinal cord slices; type: cell-based, mouse; settings: spinal cord slices of PBN treated mice
[1] = tested on: mechanical hyperalgesia of the affected hind paw; experiment: Mechanical hyperalgesia (von Frey foot withdrawal) after L5 spinal nerve ligation; type: in vivo; settings: SNL mice, PBN 150 mg/kg i.p. or 100 μg i.t.
Procedure: Inhibition of neuron death using one of the anti-oxidant agents described above is examined in a spinal injury model as described below. The oxidation inhibitor used is phenyl-N-tert-butylnitrone, a ROS scavenger. Peripheral nerve injury is induced by tightly ligating the L5 spinal nerve under isoflurane anesthesia (2% induction and 1.5% maintenance). Seven days after SNL, mice are randomly divided into treatment and control groups. Mice belonging to one treatment group are injected by one of two different routes with phenyl-N-tert-butylnitrone, PBN (Sigma, St. Louis, Mo.). Doses of PBN used are 150 mg/kg (i.p., 0.1 ml) or 100 μg (i.t., 5 μl), dissolved in saline at a concentration of 20 mg/ml. Mice in the control groups are treated with the same volume of saline. […]
Pain behavior is tested by assessing mechanical hyperalgesia of the affected hind paw. […] Mechanical hyperalgesia of the hind paw is measured by determining the frequency of foot withdrawals to 10 stimuli applied with a von Frey (vF) filament (Stoelting, Wood Dale, Ill.). […] Response rates are calculated as a percentage of the number of positive responses/10 stimuli.

## COc1cccc(C=NCCN=Cc2cccc(OC)c2[O-])c1[O-].[Cl-].[Mn+3] [EUK-134]
Rat limbic system
  activator protein-1- and NF-kB-binding activity: reduction
  increased protein nitration: reduction
  neuronal damage resulting from seizure activity in limbic structures: reduction
  spectrin proteolysis: reduction

## CC(C)(C)[N+]([O-])=Cc1ccccc1 [PBN, phenyl-N-tert-butylnitrone]
GABA neurons
  action potential discharge (excitatory) pattern of surviving neurons: superior action potential discharge (excitatory) pattern
  excitability and firing activity of GABA neurons: restore excitability and prevent suppression of firing activity
[1]
  foot withdrawal to von Frey filament (pain behavior): withdraw their foot less abruptly

From US11911504B2, “Apparatus and method for protecting neurons and reducing inflammation and scarring” (GALEN THERAPEUTICS LLC, priority 2018, dated 2024)
